Results published in US7994209B2, “3-phenoxymethylpyrrolidine compounds” (Theravance, Inc., priority 2009, dated 2011).

Biological target: T1, hNET (Homo sapiens, UniProt P23975)
Assay: hNET neurotransmitter uptake assay (3H-NE), Assay 2
Type: cell-based
Set-up: expressed in transfected cells; host or cells: HEK-293
Details: norepinephrine reuptake inhibition, 3H-NE uptake, HEK-293 hNET cells (values without asterisk); read-out: NET pIC50 (converted)

T1 sequence (P23975 whole entry): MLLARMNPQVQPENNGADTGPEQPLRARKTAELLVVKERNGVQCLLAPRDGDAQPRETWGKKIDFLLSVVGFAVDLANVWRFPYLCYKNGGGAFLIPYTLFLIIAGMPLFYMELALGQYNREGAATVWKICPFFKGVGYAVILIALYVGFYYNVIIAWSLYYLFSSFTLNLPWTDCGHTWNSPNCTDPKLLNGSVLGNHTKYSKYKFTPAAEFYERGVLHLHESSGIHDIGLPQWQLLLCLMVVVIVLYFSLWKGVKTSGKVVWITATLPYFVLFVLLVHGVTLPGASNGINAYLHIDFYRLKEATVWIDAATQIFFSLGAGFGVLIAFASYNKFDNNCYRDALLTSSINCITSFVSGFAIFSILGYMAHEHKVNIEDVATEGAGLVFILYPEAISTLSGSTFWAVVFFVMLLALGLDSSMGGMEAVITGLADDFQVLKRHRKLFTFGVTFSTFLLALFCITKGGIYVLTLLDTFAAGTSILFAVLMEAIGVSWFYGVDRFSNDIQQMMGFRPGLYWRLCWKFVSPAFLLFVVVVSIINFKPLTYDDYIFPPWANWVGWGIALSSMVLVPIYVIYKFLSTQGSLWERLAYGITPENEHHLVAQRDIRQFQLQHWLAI

| Compound | IC50 [nM] |
| --- | --- |
| CCCC[C@@H](Oc1ccc(F)cc1)[C@H]1CCNC1 [Example 8-3, (S)-3-[(R)-1-(4-Fluorophenoxy)pentyl]pyrrolidine] | ≤ 100 |
| CCCC[C@@H](Oc1ccc(Cl)cc1)[C@H]1CCNC1 [Example 8-4, (S)-3-[(R)-1-(4-Chlorophenoxy)pentyl]pyrrolidine] | ≤ 10 |
| CCCC[C@@H](Oc1c(Cl)cccc1Cl)[C@H]1CCNC1 [Example 8-12, (S)-3-[(R)-1-(2,6-Dichlorophenoxy)pentyl]pyrrolidine] | ≤ 10 |
| CCCC[C@@H](Oc1cc(Cl)cc(Cl)c1)[C@H]1CCNC1 [Example 8-13, (S)-3-[(R)-1-(3,5-Dichlorophenoxy)pentyl]pyrrolidine] | ≤ 10 |
| CC(C)C[C@H](Oc1ccccc1F)[C@H]1CCNC1 [Example 10-1, (S)-3-[(S)-1-(2-Fluorophenoxy)-3-methylbutyl]pyrrolidine] | ≤ 10 |
| CC(C)CC(Oc1ccccc1Cl)C1CCNC1 (stereo not drawn) [Example 10-3, 3-[1-(2-Chlorophenoxy)-3-methylbutyl]pyrrolidine] | ≤ 10 |
| COc1ccccc1O[C@@H](CC(C)C)[C@H]1CCNC1 [Example 10-4, (S)-3-[(S)-1-(2-Methoxyphenoxy)-3-methylbutyl]pyrrolidine] | ≤ 10 |
| CC(C)C[C@H](Oc1cccc(F)c1)[C@H]1CCNC1 [Example 10-5, (S)-3-[(S)-1-(3-Fluorophenoxy)-3-methylbutyl]pyrrolidine] | ≤ 10 |
| CC(C)CC(Oc1cccc(C(F)(F)F)c1)C1CCNC1 (stereo not drawn) [Example 10-7, 3-[3-Methyl-1-(3-trifluoromethylphenoxy)butyl]pyrrolidine] | ≤ 100 |
| CC(C)C[C@H](Oc1ccc(F)cc1)[C@H]1CCNC1 [Example 10-8, (S)-3-[(S)-1-(4-Fluorophenoxy)-3-methylbutyl]pyrrolidine] | ≤ 10 |
| CC(C)CC(Oc1ccc(F)cc1)C1CCNC1 (stereo not drawn) [Example 10-9, 3-[1-(4-Fluorophenoxy)-3-methylbutyl]pyrrolidine] | ≤ 10 |

Other lines, results leading:

| IC50 [nM] | Compound |
| --- | --- |
| ≤ 10 | CC(C)CC(Oc1ccc(Cl)cc1)C1CCNC1 (stereo not drawn) [Example 10-10, 3-[1-(4-Chlorophenoxy)-3-methylbutyl]pyrrolidine] |
| ≤ 10 | CC(C)C[C@@H](Oc1ccc(Cl)cc1)[C@H]1CCNC1 [Example 10-11, (S)-3-[(R)-1-(4-Chlorophenoxy)-3-methylbutyl]pyrrolidine] |
| ≤ 10 | CC(C)C[C@H](Oc1ccc(Cl)cc1)[C@H]1CCNC1 [Example 10-13, (S)-3-[(S)-1-(4-Chlorophenoxy)-3-methylbutyl]pyrrolidine] |
| ≤ 100 | CC(C)CC(Oc1ccc(C(F)(F)F)cc1)C1CCNC1 (stereo not drawn) [Example 10-15, 3-[3-Methyl-1-(4-trifluoromethylphenoxy)butyl]pyrrolidine] |
| ≤ 10 | CC(C)C[C@H](Oc1ccc(C(F)(F)F)cc1)[C@H]1CCNC1 [Example 10-16, (S)-3-[(S)-3-Methyl-1-(4-trifluoromethylphenoxy)butyl]pyrrolidine] |
| ≤ 10 | CC(C)C[C@@H](Oc1cccc(Cl)c1F)[C@H]1CCNC1 [Example 10-18, (S)-3-[(R)-1-(3-Chloro-2-fluorophenoxy)-3-methylbutyl]pyrrolidine] |
| ≤ 10 | CC(C)C[C@H](Oc1cccc(Cl)c1F)[C@H]1CCNC1 [Example 10-19, (S)-3-[(S)-1-(3-Chloro-2-fluorophenoxy)-3-methylbutyl]pyrrolidine] |

Biological target: T2, hSERT (Homo sapiens, UniProt P31645)
T2 sequence (P31645 whole entry): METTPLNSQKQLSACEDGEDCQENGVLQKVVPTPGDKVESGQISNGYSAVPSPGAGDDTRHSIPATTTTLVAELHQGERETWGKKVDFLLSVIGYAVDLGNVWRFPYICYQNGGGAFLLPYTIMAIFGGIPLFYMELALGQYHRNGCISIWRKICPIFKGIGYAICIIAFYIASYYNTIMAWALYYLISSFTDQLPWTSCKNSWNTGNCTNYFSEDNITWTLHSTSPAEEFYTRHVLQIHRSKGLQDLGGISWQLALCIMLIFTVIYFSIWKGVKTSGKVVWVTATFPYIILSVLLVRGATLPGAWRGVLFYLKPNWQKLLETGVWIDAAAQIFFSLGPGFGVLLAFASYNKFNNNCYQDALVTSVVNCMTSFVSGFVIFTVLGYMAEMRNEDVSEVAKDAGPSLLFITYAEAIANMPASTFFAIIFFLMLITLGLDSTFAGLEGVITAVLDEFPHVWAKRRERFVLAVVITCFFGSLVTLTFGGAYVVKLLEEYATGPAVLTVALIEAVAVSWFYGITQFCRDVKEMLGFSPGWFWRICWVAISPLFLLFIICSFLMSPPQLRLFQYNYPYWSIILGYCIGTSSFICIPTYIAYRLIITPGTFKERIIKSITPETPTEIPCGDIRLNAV
Assay: hSERT neurotransmitter uptake assay (3H-5-HT), Assay 2
Type: cell-based
Set-up: expressed in transfected cells; host or cells: HEK-293
Details: serotonin reuptake inhibition, 3H-5-HT uptake, HEK-293 hSERT cells (values without asterisk); read-out: SERT pIC50 (converted)

| Compound | IC50 [nM] |
| --- | --- |
| CCCC[C@@H](Oc1ccc(F)cc1)[C@H]1CCNC1 [Example 8-3, (S)-3-[(R)-1-(4-Fluorophenoxy)pentyl]pyrrolidine] | ≤ 100 |
| CCCC[C@@H](Oc1ccc(Cl)cc1)[C@H]1CCNC1 [Example 8-4, (S)-3-[(R)-1-(4-Chlorophenoxy)pentyl]pyrrolidine] | ≤ 10 |
| CCCC[C@@H](Oc1c(Cl)cccc1Cl)[C@H]1CCNC1 [Example 8-12, (S)-3-[(R)-1-(2,6-Dichlorophenoxy)pentyl]pyrrolidine] | ≤ 100 |
| CCCC[C@@H](Oc1cc(Cl)cc(Cl)c1)[C@H]1CCNC1 [Example 8-13, (S)-3-[(R)-1-(3,5-Dichlorophenoxy)pentyl]pyrrolidine] | ≤ 10 |
| CC(C)C[C@H](Oc1ccccc1F)[C@H]1CCNC1 [Example 10-1, (S)-3-[(S)-1-(2-Fluorophenoxy)-3-methylbutyl]pyrrolidine] | ≤ 100 |
| CC(C)CC(Oc1ccccc1Cl)C1CCNC1 (stereo not drawn) [Example 10-3, 3-[1-(2-Chlorophenoxy)-3-methylbutyl]pyrrolidine] | ≤ 100 |
| COc1ccccc1O[C@@H](CC(C)C)[C@H]1CCNC1 [Example 10-4, (S)-3-[(S)-1-(2-Methoxyphenoxy)-3-methylbutyl]pyrrolidine] | ≤ 100 |
| CC(C)C[C@H](Oc1cccc(F)c1)[C@H]1CCNC1 [Example 10-5, (S)-3-[(S)-1-(3-Fluorophenoxy)-3-methylbutyl]pyrrolidine] | ≤ 100 |
| CC(C)CC(Oc1cccc(C(F)(F)F)c1)C1CCNC1 (stereo not drawn) [Example 10-7, 3-[3-Methyl-1-(3-trifluoromethylphenoxy)butyl]pyrrolidine] | ≤ 100 |
| CC(C)C[C@H](Oc1ccc(F)cc1)[C@H]1CCNC1 [Example 10-8, (S)-3-[(S)-1-(4-Fluorophenoxy)-3-methylbutyl]pyrrolidine] | ≤ 100 |
| CC(C)CC(Oc1ccc(F)cc1)C1CCNC1 (stereo not drawn) [Example 10-9, 3-[1-(4-Fluorophenoxy)-3-methylbutyl]pyrrolidine] | ≤ 100 |

Results, then the compound that gave them:

| IC50 [nM] | Compound |
| --- | --- |
| ≤ 10 | CC(C)CC(Oc1ccc(Cl)cc1)C1CCNC1 (stereo not drawn) [Example 10-10, 3-[1-(4-Chlorophenoxy)-3-methylbutyl]pyrrolidine] |
| ≤ 10 | CC(C)C[C@@H](Oc1ccc(Cl)cc1)[C@H]1CCNC1 [Example 10-11, (S)-3-[(R)-1-(4-Chlorophenoxy)-3-methylbutyl]pyrrolidine] |
| ≤ 10 | CC(C)C[C@H](Oc1ccc(Cl)cc1)[C@H]1CCNC1 [Example 10-13, (S)-3-[(S)-1-(4-Chlorophenoxy)-3-methylbutyl]pyrrolidine] |
| ≤ 10 | CC(C)CC(Oc1ccc(C(F)(F)F)cc1)C1CCNC1 (stereo not drawn) [Example 10-15, 3-[3-Methyl-1-(4-trifluoromethylphenoxy)butyl]pyrrolidine] |
| ≤ 10 | CC(C)C[C@H](Oc1ccc(C(F)(F)F)cc1)[C@H]1CCNC1 [Example 10-16, (S)-3-[(S)-3-Methyl-1-(4-trifluoromethylphenoxy)butyl]pyrrolidine] |
| ≤ 10 | CC(C)C[C@@H](Oc1cccc(Cl)c1F)[C@H]1CCNC1 [Example 10-18, (S)-3-[(R)-1-(3-Chloro-2-fluorophenoxy)-3-methylbutyl]pyrrolidine] |
| ≤ 10 | CC(C)C[C@H](Oc1cccc(Cl)c1F)[C@H]1CCNC1 [Example 10-19, (S)-3-[(S)-1-(3-Chloro-2-fluorophenoxy)-3-methylbutyl]pyrrolidine] |

Biological target: T2, hSERT
Assay: hSERT membrane radioligand binding assay (3H-citalopram), Assay 1
Details: SERT pKi, hSERT HEK-293 membranes, 1.0 nM 3H-citalopram; values given as lower bounds
Description: Membrane radioligand binding assays were used to measure inhibition of labeled ligand (^3H-citalopram or ^3H-nisoxetine or ^3H-WIN35428) binding to membranes prepared from cells expressing the respective human recombinant transporter (hSERT or hNET or hDAT) in order to determine the pKi values of test compounds at the transporters.
Recombinant human embryonic kidney (HEK-293) derived cell lines stably transfected with hSERT or hNET, respectively, were grown in DMEM medium supplemented with 10% dialyzed FBS (for hSERT) or FBS (for hNET), 100 μg/mL penicillin, 100 μg/mL streptomycin, 2 mM L-glutamine and 250 μg/mL of the aminoglycoside antibiotic G418, in a 5% CO2 humidified incubator at 37° C. When cultures reached 80% confluence, the cells were washed thoroughly in PBS (without Ca^2+ and Mg^2+) and lifted with 5 mM EDTA in PBS. Cells were pelleted by centrifugation, resuspended in lysis buffer (10 mM Tris-HCl, pH7.5 containing 1 mM EDTA), homogenized, pelleted by centrifugation, then resuspended in 50 mM Tris-HCl, pH 7.5 and 10% sucrose at 4° C. Protein concentration of the membrane suspension was determined using a Bio-Rad Bradford Protein Assay kit. Membranes were snap frozen and stored at −80° C.
Binding assays were performed in a 96-well assay plate in a total volume of 200 μl assay buffer (50 mM Tris-HCl, 120 mM NaCl, 5 mM KCl, pH 7.4) with 0.5, 1, and 3 μg membrane protein, for SERT, NET and DAT, respectively.
Stock solutions (10 mM in DMSO) of test compound were prepared and serial dilutions made using Dilution Buffer (50 mM Tris-HCl, 120 mM NaCl, 5 mM KCl, pH 7.4, 0.1% BSA, 400 μM ascorbic acid).
Following a 60 minute incubation at 22° C. (or a period sufficient to reach equilibrium), the membranes were harvested by rapid filtration over a 96-well UniFilter GF/B plate, pretreated with 0.3% polyethyleneimine, and washed 6 times with 300 μl wash buffer (50 mM Tris-HCl, 0.9% NaCl, pH 7.5 at 4° C.). Plates were dried overnight at room temperature, approximately 45 μl of MicroScint™-20 (Perkin Elmer) added and bound radioactivity quantitated via liquid scintillation spectroscopy. Inhibition curves and saturation isotherms were analyzed using GraphPad Prism Software package (GraphPad Software, Inc., San Diego, Calif.). IC50 values were generated from concentration response curves using the Sigmoidal Dose Response (variable slope) algorithm in Prism GraphPad.

| Compound | Ki [nM] |
| --- | --- |
| CCCC[C@@H](Oc1ccc(F)cc1)[C@H]1CCNC1 [Example 8-3, (S)-3-[(R)-1-(4-Fluorophenoxy)pentyl]pyrrolidine] | ≤ 10 |
| CCCC[C@@H](Oc1ccc(Cl)cc1)[C@H]1CCNC1 [Example 8-4, (S)-3-[(R)-1-(4-Chlorophenoxy)pentyl]pyrrolidine] | ≤ 10 |
| CCCC[C@@H](Oc1c(Cl)cccc1Cl)[C@H]1CCNC1 [Example 8-12, (S)-3-[(R)-1-(2,6-Dichlorophenoxy)pentyl]pyrrolidine] | ≤ 10 |
| CCCC[C@@H](Oc1cc(Cl)cc(Cl)c1)[C@H]1CCNC1 [Example 8-13, (S)-3-[(R)-1-(3,5-Dichlorophenoxy)pentyl]pyrrolidine] | ≤ 10 |
| CC(C)C[C@H](Oc1ccccc1F)[C@H]1CCNC1 [Example 10-1, (S)-3-[(S)-1-(2-Fluorophenoxy)-3-methylbutyl]pyrrolidine] | ≤ 10 |
| CC(C)CC(Oc1ccccc1Cl)C1CCNC1 (stereo not drawn) [Example 10-3, 3-[1-(2-Chlorophenoxy)-3-methylbutyl]pyrrolidine] | ≤ 10 |
| COc1ccccc1O[C@@H](CC(C)C)[C@H]1CCNC1 [Example 10-4, (S)-3-[(S)-1-(2-Methoxyphenoxy)-3-methylbutyl]pyrrolidine] | ≤ 10 |
| CC(C)C[C@H](Oc1cccc(F)c1)[C@H]1CCNC1 [Example 10-5, (S)-3-[(S)-1-(3-Fluorophenoxy)-3-methylbutyl]pyrrolidine] | ≤ 10 |
| CC(C)CC(Oc1cccc(C(F)(F)F)c1)C1CCNC1 (stereo not drawn) [Example 10-7, 3-[3-Methyl-1-(3-trifluoromethylphenoxy)butyl]pyrrolidine] | ≤ 10 |
| CC(C)C[C@H](Oc1ccc(F)cc1)[C@H]1CCNC1 [Example 10-8, (S)-3-[(S)-1-(4-Fluorophenoxy)-3-methylbutyl]pyrrolidine] | ≤ 10 |
| CC(C)CC(Oc1ccc(F)cc1)C1CCNC1 (stereo not drawn) [Example 10-9, 3-[1-(4-Fluorophenoxy)-3-methylbutyl]pyrrolidine] | ≤ 10 |

The remaining lines, values ahead:

| Ki [nM] | Compound |
| --- | --- |
| ≤ 10 | CC(C)CC(Oc1ccc(Cl)cc1)C1CCNC1 (stereo not drawn) [Example 10-10, 3-[1-(4-Chlorophenoxy)-3-methylbutyl]pyrrolidine] |
| ≤ 10 | CC(C)C[C@@H](Oc1ccc(Cl)cc1)[C@H]1CCNC1 [Example 10-11, (S)-3-[(R)-1-(4-Chlorophenoxy)-3-methylbutyl]pyrrolidine] |
| ≤ 10 | CC(C)C[C@H](Oc1ccc(Cl)cc1)[C@H]1CCNC1 [Example 10-13, (S)-3-[(S)-1-(4-Chlorophenoxy)-3-methylbutyl]pyrrolidine] |
| ≤ 10 | CC(C)CC(Oc1ccc(C(F)(F)F)cc1)C1CCNC1 (stereo not drawn) [Example 10-15, 3-[3-Methyl-1-(4-trifluoromethylphenoxy)butyl]pyrrolidine] |
| ≤ 10 | CC(C)C[C@H](Oc1ccc(C(F)(F)F)cc1)[C@H]1CCNC1 [Example 10-16, (S)-3-[(S)-3-Methyl-1-(4-trifluoromethylphenoxy)butyl]pyrrolidine] |
| ≤ 10 | CC(C)C[C@@H](Oc1cccc(Cl)c1F)[C@H]1CCNC1 [Example 10-18, (S)-3-[(R)-1-(3-Chloro-2-fluorophenoxy)-3-methylbutyl]pyrrolidine] |
| ≤ 10 | CC(C)C[C@H](Oc1cccc(Cl)c1F)[C@H]1CCNC1 [Example 10-19, (S)-3-[(S)-1-(3-Chloro-2-fluorophenoxy)-3-methylbutyl]pyrrolidine] |

Biological target: T1, hNET
Assay: hNET membrane radioligand binding assay (3H-nisoxetine), Assay 1
Details: not given

| Compound | Ki [nM] |
| --- | --- |
| CCCC[C@@H](Oc1ccc(F)cc1)[C@H]1CCNC1 [Example 8-3, (S)-3-[(R)-1-(4-Fluorophenoxy)pentyl]pyrrolidine] | ≤ 10 |
| CCCC[C@@H](Oc1ccc(Cl)cc1)[C@H]1CCNC1 [Example 8-4, (S)-3-[(R)-1-(4-Chlorophenoxy)pentyl]pyrrolidine] | ≤ 10 |
| CCCC[C@@H](Oc1c(Cl)cccc1Cl)[C@H]1CCNC1 [Example 8-12, (S)-3-[(R)-1-(2,6-Dichlorophenoxy)pentyl]pyrrolidine] | ≤ 10 |
| CCCC[C@@H](Oc1cc(Cl)cc(Cl)c1)[C@H]1CCNC1 [Example 8-13, (S)-3-[(R)-1-(3,5-Dichlorophenoxy)pentyl]pyrrolidine] | ≤ 10 |
| CC(C)C[C@H](Oc1ccccc1F)[C@H]1CCNC1 [Example 10-1, (S)-3-[(S)-1-(2-Fluorophenoxy)-3-methylbutyl]pyrrolidine] | ≤ 10 |
| CC(C)CC(Oc1ccccc1Cl)C1CCNC1 (stereo not drawn) [Example 10-3, 3-[1-(2-Chlorophenoxy)-3-methylbutyl]pyrrolidine] | ≤ 10 |
| COc1ccccc1O[C@@H](CC(C)C)[C@H]1CCNC1 [Example 10-4, (S)-3-[(S)-1-(2-Methoxyphenoxy)-3-methylbutyl]pyrrolidine] | ≤ 10 |
| CC(C)C[C@H](Oc1cccc(F)c1)[C@H]1CCNC1 [Example 10-5, (S)-3-[(S)-1-(3-Fluorophenoxy)-3-methylbutyl]pyrrolidine] | ≤ 10 |
| CC(C)CC(Oc1cccc(C(F)(F)F)c1)C1CCNC1 (stereo not drawn) [Example 10-7, 3-[3-Methyl-1-(3-trifluoromethylphenoxy)butyl]pyrrolidine] | ≤ 100 |
| CC(C)C[C@H](Oc1ccc(F)cc1)[C@H]1CCNC1 [Example 10-8, (S)-3-[(S)-1-(4-Fluorophenoxy)-3-methylbutyl]pyrrolidine] | ≤ 10 |
| CC(C)CC(Oc1ccc(F)cc1)C1CCNC1 (stereo not drawn) [Example 10-9, 3-[1-(4-Fluorophenoxy)-3-methylbutyl]pyrrolidine] | ≤ 10 |

Next, values leading:

| Ki [nM] | Compound |
| --- | --- |
| ≤ 10 | CC(C)CC(Oc1ccc(Cl)cc1)C1CCNC1 (stereo not drawn) [Example 10-10, 3-[1-(4-Chlorophenoxy)-3-methylbutyl]pyrrolidine] |
| ≤ 10 | CC(C)C[C@@H](Oc1ccc(Cl)cc1)[C@H]1CCNC1 [Example 10-11, (S)-3-[(R)-1-(4-Chlorophenoxy)-3-methylbutyl]pyrrolidine] |
| ≤ 10 | CC(C)C[C@H](Oc1ccc(Cl)cc1)[C@H]1CCNC1 [Example 10-13, (S)-3-[(S)-1-(4-Chlorophenoxy)-3-methylbutyl]pyrrolidine] |
| ≤ 10 | CC(C)CC(Oc1ccc(C(F)(F)F)cc1)C1CCNC1 (stereo not drawn) [Example 10-15, 3-[3-Methyl-1-(4-trifluoromethylphenoxy)butyl]pyrrolidine] |
| ≤ 10 | CC(C)C[C@H](Oc1ccc(C(F)(F)F)cc1)[C@H]1CCNC1 [Example 10-16, (S)-3-[(S)-3-Methyl-1-(4-trifluoromethylphenoxy)butyl]pyrrolidine] |
| ≤ 10 | CC(C)C[C@@H](Oc1cccc(Cl)c1F)[C@H]1CCNC1 [Example 10-18, (S)-3-[(R)-1-(3-Chloro-2-fluorophenoxy)-3-methylbutyl]pyrrolidine] |
| ≤ 10 | CC(C)C[C@H](Oc1cccc(Cl)c1F)[C@H]1CCNC1 [Example 10-19, (S)-3-[(S)-1-(3-Chloro-2-fluorophenoxy)-3-methylbutyl]pyrrolidine] |
